We go through 2 molecules from paper PMC9889419 (Pharmacological Reports, 2022).

Where “and” joins values, the source holds several entries; their conditions need not be identical. Equal values may be shown once. Where a name gives a salt, the structure may show the parent alone.

As a reminder, the ED50 is the midpoint of the dose-response relation. A low value points to an effect at a small dose. Usually pKa stands for the pH at which an ionisable group is half protonated. A low value points to a stronger acid or weaker base. As usually defined, the IC50 is the midpoint of a concentration-inhibition curve.

One series has as its system Frings mice. The series can be described thus: Frings mice sound-induced seizures. Conditions: ip. Type of series: in vivo.
The subject of series [1] is rats. The series can be described thus: Rotarod / TOX (neurotoxicity). The settings on record: for Rotarod TD50: rats.
Experimental: The assays were carried out within the Epilepsy Therapy Screening Program (ETSP, previously known as the Anticonvulsant Screening Program, ASP), Epilepsy Branch, National Institute of Neurological and Communicative Disorders and Stroke, National Institutes of Health in Rockville, MD, USA [23].
The obtained compounds were screened for antiseizure activity and neurotoxicity in vivo within the Epilepsy Therapy Screening Program (ETSP, previously known as the Anticonvulsant Screening Program, ASP), Epilepsy Branch, National Institute of Neurological and Communicative Disorders and Stroke, National Institutes of Health in Rockville, MD, USA [23].
A further series has as its target T1, hERG (Homo sapiens, UniProt Q12809).
T1 construct: purchased Eurofins CEREP
The series can be described thus: Radioligand binding. The settings on record: read-out: % of control specific binding.

In series [2] the test system is mice. The series can be described thus: Formalin test (first screening). In kind it is in vivo. Conditions: ip.
Experimental: Formalin test. The first screening in doses 15 and 30 mg/kg was performed at the Jagiellonian University-Medical College. […] After 30 min, animals were injected with 20 μL of a 0.5% formalin solution into the plantar surface of the hind paw. The total time spent by animal licking or biting the injected paw was assessed for the following 40 min.
The subject of series [3] is mice. The series can be described thus: Hot plate test. Type of series: in vivo. The protocol:
The hot plate test was performed as previously described. The mice were ip pre-treated 30 min before experiment either with the compound, dissolved in saline (at doses 10, 30 and 100 mg/kg) or vehicle and were placed on a hot plate set at 55 °C (Hot plate, Omega 2A, Poland). Latency to nocifensive reaction (hind paw licking or jumping) of mice was recorded. The mouse was removed from the plate immediately upon licking a hind paw/jumping or if no response occurred within 60 s (cut-off).
In general terms: In hot-plate and tail-flick tests a longer latency is read as antinociception.

The test system of series [4] is mice. The series can be described thus: Capsaicin test. Type of series: in vivo. As for the experimental part: Neurogenic pain—capsaicin test. In this test compound dissolved in saline was tested at doses 5, 10, and 30 mg/kg. Compound was administered ip and 30 min later 1.6 μg of capsaicin (Sigma-Aldrich, Germany) dissolved in 20 μL of a mixture containing 0.9% saline and ethanol (5% of the final volume) was injected intraplantarly in the ventral surface of the right-hind paw of each mouse. The animals were observed individually for 5 min following capsaicin injection. In all experimental groups, the amount of time spent on licking, biting, or lifting the injected paw was recorded with a chronometer and was considered as an indicator of nociception.

For series [5], the system named is mice. The series can be described thus: Tail immersion test (local anesthetic activity). Type of series: in vivo.
Experimental: The tail immersion test in mice. […] The method was performed by subcutaneous (sc) injection of the tested substance dissolved in saline, at a concentration range 0.06–2%, in a constant volume of 0.2 mL about 1 cm from the root of the mouse tail. Fifteen minutes later, the 3-cm distal part of the tail was immersed into temperature-controlled water (50 ± 0.5 °C). The reaction time (latency until the tail is pulled away) was measured by the means of a chronometer. In this assay the cut-off was 20 s [29].
The nature of series [6]: pKa by potentiometric titration. In kind it is physicochemical. Conditions: aqueous solution titrated with 0.051 M NaOH; 37 °C. The protocol:
pKa. The assay was performed by potentiometric titration, at 37 °C. The method is based on the additional portions of 0.051 M NaOH solution to the aqueous solution of test compounds, on electromagnetic stirrer with contact thermometer (Heidolph MR Hei-Standard). NaOH solution was added in 500 μL portions using Eppendorf automatic pipette. Waiting a few seconds after each titrant addition allowed the solution temperature to stabilize. After this time pH was recorded with the use of pH-meter CP-551 (Elmetron) for precise determination of pH in laboratory conditions (pH 0–14; pH accuracy ± 0.01) with combined chloride electrode OSH-10-10 (enables measurements in the temperature range 0–60 °C and pH range 1–12). Then, next portion of titrant was added. Titration was completed after 15 mL of NaOH solution was added. Threefold repetitions of titration were applied. pKa of the tested compound was calculated on the basis of the pH values obtained.

Series [7] concerns normotensive anaesthetized rats. The series can be described thus: Influence on blood pressure. Type of series: in vivo. The settings on record: 5 mg/kg iv, immediately after administration. The protocol: Influence on blood pressure in rats. Rats were anaesthetized with thiopental (75 mg/kg ip). The right carotid artery was cannulated with polyethylene tube filled with heparin in saline to facilitate pressure measurements using a Datamax apparatus (Columbus Instruments).

For series [8], the system named is rats. The series can be described thus: Whole body plethysmography. In kind it is in vivo. Conditions: 6, 10 and 20 mg/kg ip, 4-h test period. As for the experimental part:
Whole body plethysmography. The method, which detects the effects of a test substance on airway function, follows that described by Chong et al. and by Hamelmann et al.. Rats were placed individually in a single chamber plethysmograph (Buxco) in which they can move and drink freely. After a habituation period of 150 min, the following parameters were recorded: inspiratory time, expiratory time, peak inspiratory flow, peak expiratory flow, tidal volume, respiratory rate, relaxation time, pause, enhanced pause. All data generated were acquired using specialized EMKA Technologies software (lOX version 1.7.0; ANALYST version 1.49), connected to Buxco plethysmographic equipment. Recordings were taken for 30 min before and for 4 h after administration of the test substance. […] Each time point represented the mean value of a 2-min block (recorded 1 min before and 1 min after each time point). In cases where the data can be considered invalid, for example if recorded during a period of sniffing thereby causing a brief period of increased respiratory frequency, the retained values were those as close as possible to the theoretical time point. Results were expressed as absolute values and as percent changes from initial mean values (T0). […] Each test substance was evaluated at 3 doses (6 mg/kg, 10 mg/kg, and 20 mg/kg), administered ip, and compared with a vehicle control group. […]

The next series concerns murine astrocytes. The series can be described thus: Crystal violet (CV) assay. In kind it is cell-based.
In the next series the target is T2, hNav1.2 sodium channel (Homo sapiens, UniProt Q99250).
T2 construct: host or cells: CHO cells
The series can be described thus: Nav channel electrophysiology (IonWorks Quattro). In kind it is cell-based.

The target in a further series is T3, hNav1.4 sodium channel (Homo sapiens, UniProt P35499).
T3 construct: host or cells: CHO cells
The series can be described thus: Nav channel electrophysiology (IonWorks Quattro). In kind it is cell-based.

The next series concerns the target T4, hNav1.6 sodium channel (Homo sapiens, UniProt Q9UQD0).
T4 construct: host or cells: CHO cells
The series can be described thus: Nav channel electrophysiology (IonWorks Quattro). Type of series: cell-based. In general terms: The patch-clamp technique gives a direct electrical read-out from membranes.

T3 sequence (P35499 whole entry): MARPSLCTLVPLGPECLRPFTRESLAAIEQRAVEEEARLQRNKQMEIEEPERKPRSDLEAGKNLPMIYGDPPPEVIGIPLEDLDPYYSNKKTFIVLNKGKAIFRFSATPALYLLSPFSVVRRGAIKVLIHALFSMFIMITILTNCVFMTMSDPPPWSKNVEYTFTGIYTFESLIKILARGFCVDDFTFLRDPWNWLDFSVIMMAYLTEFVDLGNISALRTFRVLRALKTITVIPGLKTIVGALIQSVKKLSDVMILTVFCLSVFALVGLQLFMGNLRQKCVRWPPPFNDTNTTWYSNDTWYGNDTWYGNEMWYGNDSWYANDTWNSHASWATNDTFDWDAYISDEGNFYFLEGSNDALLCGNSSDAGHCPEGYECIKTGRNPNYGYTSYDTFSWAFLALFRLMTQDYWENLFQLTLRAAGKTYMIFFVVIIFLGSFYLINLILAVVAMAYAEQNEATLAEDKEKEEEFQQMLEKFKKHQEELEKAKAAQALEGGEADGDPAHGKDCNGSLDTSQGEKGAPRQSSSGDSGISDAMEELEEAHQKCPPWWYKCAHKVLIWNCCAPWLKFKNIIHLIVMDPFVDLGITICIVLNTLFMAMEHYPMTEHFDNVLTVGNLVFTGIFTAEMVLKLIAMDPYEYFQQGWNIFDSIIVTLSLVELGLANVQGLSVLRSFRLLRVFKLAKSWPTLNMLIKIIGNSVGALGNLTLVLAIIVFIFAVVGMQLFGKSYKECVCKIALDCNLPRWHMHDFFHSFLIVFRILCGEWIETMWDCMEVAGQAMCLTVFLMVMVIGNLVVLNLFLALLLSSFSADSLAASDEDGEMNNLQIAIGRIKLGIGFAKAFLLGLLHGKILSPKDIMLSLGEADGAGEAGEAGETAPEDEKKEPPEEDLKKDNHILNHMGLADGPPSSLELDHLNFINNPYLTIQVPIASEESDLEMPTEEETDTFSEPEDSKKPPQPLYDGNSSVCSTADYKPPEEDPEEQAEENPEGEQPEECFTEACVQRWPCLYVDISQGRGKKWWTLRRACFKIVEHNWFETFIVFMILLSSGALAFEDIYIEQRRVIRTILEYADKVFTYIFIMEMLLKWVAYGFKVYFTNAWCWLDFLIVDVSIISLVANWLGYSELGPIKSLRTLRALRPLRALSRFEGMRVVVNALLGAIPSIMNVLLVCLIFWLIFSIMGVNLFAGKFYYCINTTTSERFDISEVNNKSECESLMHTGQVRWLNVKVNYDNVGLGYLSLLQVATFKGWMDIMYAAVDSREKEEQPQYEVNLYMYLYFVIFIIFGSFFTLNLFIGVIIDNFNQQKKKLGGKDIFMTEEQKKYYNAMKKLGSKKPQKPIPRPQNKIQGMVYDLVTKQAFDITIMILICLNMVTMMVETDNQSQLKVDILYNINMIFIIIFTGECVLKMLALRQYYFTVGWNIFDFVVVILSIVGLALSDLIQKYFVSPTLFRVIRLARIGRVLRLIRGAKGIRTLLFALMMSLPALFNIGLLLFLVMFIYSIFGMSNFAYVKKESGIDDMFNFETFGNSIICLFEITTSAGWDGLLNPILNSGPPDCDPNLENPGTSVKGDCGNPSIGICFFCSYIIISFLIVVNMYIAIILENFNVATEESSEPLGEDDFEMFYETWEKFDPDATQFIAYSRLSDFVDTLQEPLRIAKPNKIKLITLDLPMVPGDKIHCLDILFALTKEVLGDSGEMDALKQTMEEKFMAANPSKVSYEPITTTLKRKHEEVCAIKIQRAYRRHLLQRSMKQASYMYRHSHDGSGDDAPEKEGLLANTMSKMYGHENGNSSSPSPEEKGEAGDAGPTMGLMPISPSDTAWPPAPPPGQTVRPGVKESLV
T4 sequence (Q9UQD0 whole entry): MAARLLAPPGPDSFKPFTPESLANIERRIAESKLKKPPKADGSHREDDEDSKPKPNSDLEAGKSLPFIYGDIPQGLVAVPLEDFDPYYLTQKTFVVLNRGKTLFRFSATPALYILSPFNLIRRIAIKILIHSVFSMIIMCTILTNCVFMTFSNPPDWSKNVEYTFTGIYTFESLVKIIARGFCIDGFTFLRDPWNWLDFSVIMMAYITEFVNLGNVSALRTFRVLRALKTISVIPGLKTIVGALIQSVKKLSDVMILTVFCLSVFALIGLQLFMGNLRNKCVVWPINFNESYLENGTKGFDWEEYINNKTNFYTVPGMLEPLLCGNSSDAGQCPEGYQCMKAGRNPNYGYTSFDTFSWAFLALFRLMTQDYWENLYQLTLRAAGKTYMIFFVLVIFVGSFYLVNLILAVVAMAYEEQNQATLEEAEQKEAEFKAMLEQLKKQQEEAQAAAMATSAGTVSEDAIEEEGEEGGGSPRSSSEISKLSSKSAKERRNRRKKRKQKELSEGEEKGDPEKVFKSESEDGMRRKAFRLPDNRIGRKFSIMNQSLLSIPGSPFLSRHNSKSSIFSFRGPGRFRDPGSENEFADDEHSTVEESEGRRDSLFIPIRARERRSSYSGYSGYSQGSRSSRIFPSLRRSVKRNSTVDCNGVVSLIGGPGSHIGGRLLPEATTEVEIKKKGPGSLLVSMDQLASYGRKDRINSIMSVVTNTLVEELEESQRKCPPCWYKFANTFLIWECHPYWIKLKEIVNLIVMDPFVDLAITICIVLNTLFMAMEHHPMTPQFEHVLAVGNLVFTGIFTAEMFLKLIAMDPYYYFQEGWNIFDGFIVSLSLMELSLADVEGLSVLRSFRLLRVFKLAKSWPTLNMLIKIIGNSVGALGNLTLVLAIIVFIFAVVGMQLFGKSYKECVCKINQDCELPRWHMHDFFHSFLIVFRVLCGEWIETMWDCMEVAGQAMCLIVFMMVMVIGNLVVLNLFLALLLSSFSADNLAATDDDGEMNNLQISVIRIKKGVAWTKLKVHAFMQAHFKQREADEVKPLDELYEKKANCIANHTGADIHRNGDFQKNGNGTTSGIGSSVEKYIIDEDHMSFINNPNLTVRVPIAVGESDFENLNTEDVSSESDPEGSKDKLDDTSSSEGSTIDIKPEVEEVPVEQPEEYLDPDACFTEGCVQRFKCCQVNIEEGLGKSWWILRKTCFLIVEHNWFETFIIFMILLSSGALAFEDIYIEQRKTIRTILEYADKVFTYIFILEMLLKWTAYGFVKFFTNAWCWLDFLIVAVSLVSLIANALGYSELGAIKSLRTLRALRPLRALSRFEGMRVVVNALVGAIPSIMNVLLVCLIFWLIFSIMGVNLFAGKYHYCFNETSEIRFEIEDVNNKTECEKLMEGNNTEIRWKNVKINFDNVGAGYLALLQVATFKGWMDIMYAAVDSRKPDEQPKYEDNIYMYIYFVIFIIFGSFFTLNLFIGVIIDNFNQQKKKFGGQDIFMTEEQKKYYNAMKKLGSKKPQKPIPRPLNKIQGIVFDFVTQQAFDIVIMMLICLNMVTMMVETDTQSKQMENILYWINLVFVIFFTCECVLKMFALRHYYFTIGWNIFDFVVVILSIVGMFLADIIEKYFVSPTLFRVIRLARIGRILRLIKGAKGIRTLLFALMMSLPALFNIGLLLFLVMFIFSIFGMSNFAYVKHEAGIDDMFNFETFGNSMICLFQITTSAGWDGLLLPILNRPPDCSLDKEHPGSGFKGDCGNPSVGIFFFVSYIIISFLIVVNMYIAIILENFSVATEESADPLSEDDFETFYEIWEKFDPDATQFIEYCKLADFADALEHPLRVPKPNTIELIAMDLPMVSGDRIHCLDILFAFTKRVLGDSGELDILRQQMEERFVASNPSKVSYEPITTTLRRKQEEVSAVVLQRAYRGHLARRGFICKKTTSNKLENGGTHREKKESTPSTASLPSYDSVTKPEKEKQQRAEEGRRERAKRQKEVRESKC
T1 sequence (Q12809 whole entry): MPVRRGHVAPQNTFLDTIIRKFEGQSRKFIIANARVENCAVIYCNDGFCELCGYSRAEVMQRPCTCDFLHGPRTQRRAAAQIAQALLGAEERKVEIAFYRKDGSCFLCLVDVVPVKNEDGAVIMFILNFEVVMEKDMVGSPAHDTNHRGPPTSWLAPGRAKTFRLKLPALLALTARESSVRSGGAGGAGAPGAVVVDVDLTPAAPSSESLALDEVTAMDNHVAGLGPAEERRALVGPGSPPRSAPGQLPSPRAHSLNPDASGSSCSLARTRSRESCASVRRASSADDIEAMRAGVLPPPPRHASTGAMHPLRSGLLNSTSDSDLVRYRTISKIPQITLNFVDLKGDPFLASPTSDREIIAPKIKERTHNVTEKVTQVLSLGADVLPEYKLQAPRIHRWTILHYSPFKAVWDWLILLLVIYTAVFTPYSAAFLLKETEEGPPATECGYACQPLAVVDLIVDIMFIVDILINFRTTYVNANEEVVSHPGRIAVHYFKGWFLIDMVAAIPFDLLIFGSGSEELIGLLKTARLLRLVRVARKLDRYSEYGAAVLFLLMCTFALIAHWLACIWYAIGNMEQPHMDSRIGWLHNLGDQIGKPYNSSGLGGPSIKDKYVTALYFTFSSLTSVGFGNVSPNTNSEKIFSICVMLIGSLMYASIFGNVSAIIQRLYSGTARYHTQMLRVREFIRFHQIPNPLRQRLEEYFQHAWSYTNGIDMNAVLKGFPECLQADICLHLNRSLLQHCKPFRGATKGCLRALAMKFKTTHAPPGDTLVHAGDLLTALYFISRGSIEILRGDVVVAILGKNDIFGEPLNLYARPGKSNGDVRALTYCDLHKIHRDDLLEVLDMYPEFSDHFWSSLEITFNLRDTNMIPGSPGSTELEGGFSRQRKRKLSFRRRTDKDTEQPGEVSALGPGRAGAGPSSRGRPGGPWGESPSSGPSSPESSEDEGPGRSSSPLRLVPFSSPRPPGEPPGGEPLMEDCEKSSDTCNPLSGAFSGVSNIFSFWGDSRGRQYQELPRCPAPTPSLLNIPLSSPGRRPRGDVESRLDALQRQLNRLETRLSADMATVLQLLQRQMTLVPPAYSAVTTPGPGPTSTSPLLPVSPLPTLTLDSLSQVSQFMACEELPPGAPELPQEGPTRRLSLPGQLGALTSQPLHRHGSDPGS
Experimental for hERG: Radioligand binding. Radioligand binding assays were performed at Eurofins CEREP (France). The results are expressed as a percent of control specific binding (measured specific binding*100/control specific binding) and as a percent inhibition of control specific binding (100-(measured specific binding*100)/control specific binding) obtained in the presence of the test compounds. The IC50 values (concentration causing a half-maximal inhibition of control specific binding) and Hill coefficients (nH) were determined by non-linear regression analysis of the competition curves generated with mean replicate values using Hill equation curve fitting (Y = D + [A-D]/[1 + (C/C50)^nH], where Y = specific binding, A = left asymptote of the curve, D = right asymptote of the curve, C = compound concentration, C50 = IC50, and nH = slope factor). […] The inhibition constants (Ki) were calculated using the Cheng Prusoff equation (Ki = IC50/[1 + L/KD], where L = concentration of radioligand in the assay, and KD = affinity of the radioligand for the receptor).
Experimental for murine astrocytes: CV assay. Cells were seeded at a density of 1 × 10^4 cells per well in 96-well plates.

With `CCC(CO)NCCOc1c(C)cccc1Cl` (stereo not drawn) [Compound 4, R,S-2-((2-(2-chloro-6-methylphenoxy)ethyl)amino)butan-1-ol], the “Frings mice sound-induced seizures ED50” value in the series on Frings mice is recorded as 6.05 (4.23–8.45) mg/kg. Moreover, the “Rotarod TD50” value in the series on rats [1] (ip, listed as 348014) is reported as under 50 mg/kg; in the series on rats [1] (po) it was over 240 mg/kg. Also, the “TOX TD50” value with rats [1] (report of 16-Aug-2004 (rats, po)) is reported as over 60 mg/kg.
`CCC(CO)NCCOc1c(C)cccc1Cl` (stereo not drawn) [KM-408, R,S-2-((2-(2-chloro-6-methylphenoxy)ethyl)amino)butan-1-ol hydrochloride]: on hERG, the activity at 100 µM was 26.1%. The “% of effect (II phase)” value with mice [2] (30.0 mg/kg) turned out to be 26.6%. Moreover, the “Time of licking paw ± SEM (I phase)” value with mice [2] (30.0 mg/kg) is listed as 60.6 ± 8.0 s. Moreover, in the series on mice [2] (30.0 mg/kg), the “Time of licking paw ± SEM (II phase)” value came out at 22.4 ± 6.5 s. Also, the “formalin test (I phase): active at” value with mice [2] came out at 30 mg/kg. Moreover, in the series on mice [3] (10 mg/kg ip), the “effect on the thermal pain threshold” value is on record as “no significant effect”. The “prolongation of nocifensive response” value came to 123% in the series with mice [3] (30 mg/kg ip) and 177% in the series on mice [3] (100 mg/kg ip). Besides, in the series with mice [3] (mice, ip), the “hot plate test: active at” value is listed as 30 mg/kg. The “reduction of nociceptive response” value in the series on mice [4] (5 mg/kg ip, not significant) turned out to be 19%. Moreover, the licking response came out at 42.7 ± 5.6 s in the series on mice [4] (10 mg/kg ip) and 27.7 ± 5.7 s with mice [4] (30 mg/kg ip). Besides, the figures for the “reduction of licking response” value in the series on mice [4] (10 mg/kg ip) and with mice [4] (30 mg/kg ip) were 38% and 60%, respectively. The same molecule returned a median effective dose (ED50) in the series on mice [4] (Mus musculus, mice, ip) of 19 mg/kg. Further, the “Reaction time to painful stimulus” value in the series with mice [5] (0.062%) amounted to 4.4 ± 1.0 s; in the series on mice [5] (0.125%) it was 5.0 ± 1.0 s; in the series on mice [5] (0.5%) it was 9.3 ± 0.9 s; with mice [5] (2.0%), 14.8 ± 1.9 s; with mice [5] ([…]), 7.4 ± 1.0 s. Also, the “Prolongation of the time reaction” value with mice [5] (0.125%) was 42.9%; with mice [5] (0.5%), 166% and 165.7%; in the series with mice [5] (2.0%), 323% and 322.9%. Moreover, the “tail immersion test: active at” value in the series on mice [5] (mice) was found to be 0.5%. In addition, in series [6], the pKa is 9.5. The “lowering of diastolic blood pressure” value in [7] is recorded as “approximately 21 mmHg”. Also, the “lowering of systolic blood pressure” value in [7] is on record as “approximately 21 mmHg”. The “effects on respiratory parameters” value with rats [8] is given as “No significant effects”. In addition, the “impact on proliferation (crystal violet)” value with murine astrocytes is “did not exhibit cytotoxic activity and a notable impact on proliferation”. Further, the IC50 was 15.6 µM against hNav1.2 sodium channel (10 Hz); under 10 µM against hNav1.2 sodium channel (Inactivated state); 48.7 µM at hNav1.2 sodium channel (Tonic block); 8.17 µM against hNav1.4 sodium channel (10 Hz); under 10 µM on hNav1.4 sodium channel (Inactivated state); 68 µM on hNav1.4 sodium channel (Tonic block). Also, the IC50 is 20.5 µM on hNav1.6 sodium channel (10 Hz), under 10 µM against hNav1.6 sodium channel (Inactivated state) and 60.1 µM at hNav1.6 sodium channel (Tonic block).
